According to patent publication US12686697B2, “Advantageous morphic form of AT-527 hemi-sulfate salt” (Atea Pharmaceuticals, Inc., priority 2021, dated 2026):
Entries after “also recorded” stand apart in the source; their conditions may differ. Counter-ions that a name gives are not always drawn.

Legend:
[1] = Stability of 5 kg lot of Form III at 40° C.±2° C., 75% RH±5% RH; assay type: physicochemical; conditions: 40° C. and 75% RH, three months
Procedure: Example 7. Stability of 5 kg Lot of Form III at 40° C.±2° C., 75% RH±5% RH
Further studies on the stability of Compound A Form III were conducted at elevated temperature and humidity. These conditions are less desirable for the storage of active pharmaceutical ingredients and may lead to accelerated degradation.

[2] = Stability of 5 kg lot of Form III at 25° C.±2° C., 60% RH±5% RH; assay type: physicochemical; conditions: stored at about 25° C. and about 60% RH, three months
Procedure: Example 6. Stability of 5 kg Lot of Form III at 25° C.±2° C., 60% RH±5% RH
These properties are advantageous for use in clinical trials or clinical use of the compound.

[3] = Stability of 0.1 kg lot of Form III under ambient conditions (15° C.-25° C., ambient RH); assay type: physicochemical; conditions: 12 months / one year
Procedure: Example 8. Stability of 0.1 kg Lot of Form III
Additional stability studies were performed for smaller lots of Compound A Form III. These studies were performed in stability chambers set to 25° C. and 60% RH, 40° C. and 75% RH for up to 8 weeks. In other embodiments the studies can be performed for up to 4 weeks, for up to 2 weeks and for one week. The stability studies were also performed under ambient conditions, 15-25° C. with no control over the humidity.

[4] = tested on: SARS-CoV-2; conditions: cited from earlier work
[5] = in vivo; cited from earlier work
[6] = clinical trials; cited from earlier work
[7] = tested on: HCV; conditions: non-cirrhotic and cirrhotic HCV-infected patients, single and multiple doses; cited from earlier work

Structure (SMILES)	Degradation (decrease in purity, generation of impurities) [1]	Absorption of water from the atmosphere upon storage [2]	Degradation measured by HPLC-UV [2]	Decrease in purity [3]	Potency against SARS-CoV-2 [4]	Tissue concentration [5]	Drug related serious adverse events [6]	Antiviral reduction in HCV-infected cohorts [7]
CNc1nc(N)nc2c1ncn2[C@@H]1O[C@H](CO[P@@](=O)(N[C@@H](C)C(=O)OC(C)C)Oc2ccccc2)[C@@H](O)[C@@]1(C)F [Compound A Form III, hemi-sulfate salt of isopropyl ((S)-(((2R,3R,4R,5R)-5-(2-amino-6-(methylamino)-9H-purin-9-yl)-4-fluoro-3-hydroxy-4-methyltetrahydrofuran-2-yl)methoxy)(phenoxy)phosphoryl)-L-alaninate]	no measurable decrease in purity or generation of impurities; also recorded: no measurable degradation	does not appreciably absorb water	no measurable degradation	little or no decrease; also recorded: no measurable decrease in purity	–	–	–	–
CNc1nc(N)nc2c1ncn2[C@@H]1O[C@H](CO[P@@](=O)(N[C@@H](C)C(=O)OC(C)C)Oc2ccccc2)[C@@H](O)[C@@]1(C)F [Compound A, hemi-sulfate salt of isopropyl ((S)-(((2R,3R,4R,5R)-5-(2-amino-6-(methylamino)-9H-purin-9-yl)-4-fluoro-3-hydroxy-4-methyltetrahydrofuran-2-yl)methoxy)(phenoxy)phosphoryl)-L-alaninate]	–	–	–	–	potent	disproportionately concentrate in the lung and the liver	no drug related serious adverse events observed	significant antiviral reduction
